For 27 molecules, IC50 results are on record in patent US8846909B2, “Bicyclic heteroaryl kinase inhibitors and methods of use” (University of Rochester, priority 2010, dated 2014).

The target of the assay is T1, MLK3 (Homo sapiens, UniProt Q16584).
T1 construct: purchased Dundee DU8313
Kind of assay: Radiometric filter plate MLK3 assay. Note: 2 µM cold ATP (Km). It is filed as biochemical. The following applies: read-out: MK3 IC50. The procedure: After a twenty minute incubation, the reactions were washed through filter plates and read on a scintillation counter. Results are shown in Table 10 below, in which +++ indicates ≦0.1 μM, ++ indicates >0.1 μM and ≦1 μM, and + indicates >1 μM.

A value given as a limit tells only on which side of the number the result lay.

T1 sequence (Q16584 whole entry): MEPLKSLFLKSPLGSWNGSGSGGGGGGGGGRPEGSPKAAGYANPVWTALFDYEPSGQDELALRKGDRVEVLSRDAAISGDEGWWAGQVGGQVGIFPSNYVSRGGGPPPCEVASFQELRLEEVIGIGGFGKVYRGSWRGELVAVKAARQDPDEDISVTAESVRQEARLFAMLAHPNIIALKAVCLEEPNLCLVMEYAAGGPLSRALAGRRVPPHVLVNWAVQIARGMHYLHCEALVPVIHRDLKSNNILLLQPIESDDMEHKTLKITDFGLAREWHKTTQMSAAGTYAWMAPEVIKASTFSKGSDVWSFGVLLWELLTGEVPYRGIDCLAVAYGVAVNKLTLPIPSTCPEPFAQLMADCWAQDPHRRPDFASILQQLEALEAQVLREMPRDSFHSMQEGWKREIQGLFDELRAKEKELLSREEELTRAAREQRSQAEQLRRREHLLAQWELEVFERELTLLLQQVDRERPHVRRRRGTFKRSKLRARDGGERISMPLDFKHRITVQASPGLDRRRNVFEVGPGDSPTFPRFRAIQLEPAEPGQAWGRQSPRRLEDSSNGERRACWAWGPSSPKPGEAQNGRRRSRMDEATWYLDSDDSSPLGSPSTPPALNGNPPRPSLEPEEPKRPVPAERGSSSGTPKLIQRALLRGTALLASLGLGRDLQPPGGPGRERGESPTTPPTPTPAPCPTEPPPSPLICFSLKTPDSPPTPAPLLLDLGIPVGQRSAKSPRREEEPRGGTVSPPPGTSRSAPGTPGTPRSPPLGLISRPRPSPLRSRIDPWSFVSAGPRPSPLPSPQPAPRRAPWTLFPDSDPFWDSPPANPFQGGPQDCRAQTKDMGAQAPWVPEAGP

Consider `COc1cc(-c2nc3c(nc2Cl)[nH]c(=O)n3CC2CC2)cc(OC)c1OC` [Example 119, 5-chloro-1-(cyclopropylmethyl)-6-(3,4,5-trimethoxyphenyl)-1H-imidazo[4,5-b]pyrazin-2(3H)-one], for which the IC50 is over 1000 nM.
For `c1cc2cc(-c3c[nH]c4ncc(-c5ccc(CN6CCOCC6)cc5)cc34)ccc2[nH]1` [Example 169, 4-(4-(3-(1H-indol-5-yl)-1H-pyrrolo[2,3-b]pyridin-5-yl)benzyl)morpholine], the IC50 was under 100 nM.
With `COc1cc(-c2cnc3c(c2)C(=Cc2cccc(C#N)c2)C(=O)N3)cc(OC)c1OC` (mixture of isomers) [Example 134, 3-[2-oxo-5-(3,4,5-trimethoxy-phenyl)-1,2-dihydro-pyrrolo[2,3-b]pyridin-3-ylidenemethyl]-benzonitrile], the IC50 was over 1000 nM.
Turning to `COc1cc(-c2cnc3[nH]c(=O)n(CC4CC4)c3c2)cc(OC)c1OC` [Example 125, 1-(cyclopropylmethyl)-6-(3,4,5-trimethoxyphenyl)-1H-imidazo[4,5-b]pyridin-2(3H)-one], the IC50 was over 1000 nM.
In the case of `COc1cc(-c2cnc3[nH]c(=O)n(-c4ccc5[nH]ccc5c4)c3n2)cc(OC)c1O` [Example 62, 6-(4-hydroxy-3,5-dimethoxyphenyl)-1-(1H-indol-5-yl)-1H-imidazo[4,5-b]pyrazin-2(3H)-one], the IC50 was under 100 nM.
In the case of `COc1cc(-c2cnc3[nH]c(=O)n(-c4ccc5[nH]c(C)cc5c4)c3n2)cc(OC)c1OC` [Example 72, 1-(2-methyl-1H-indol-5-yl)-6-(3,4,5-trimethoxyphenyl)-1H-imidazo[4,5-b]pyrazin-2(3H)-one], the IC50 is under 100 nM.
In the case of `O=c1[nH]c2ncc(-c3ccc4cc[nH]c4c3)nc2n1-c1ccc2[nH]ccc2c1` [Example 56, 1-(1H-indol-5-yl)-6-(1H-indol-6-yl)-1H-imidazo[4,5-b]pyrazin-2(3H)-one] it was over 1000 nM.
Consider `CN1CCN(Cc2ccc(-c3c[nH]c4ncc(-c5ccc(C(N)=O)cc5)cc34)cc2)CC1` [Example 162, 4-{3-[4-(4-methyl-piperazin-1-ylmethyl)-phenyl]-1H-pyrrolo[2,3-b]pyridin-5-yl}-benzamide], for which the half-maximal inhibitory concentration (IC50) is under 100 nM.
With `COc1cc(-c2cnc3[nH]cc(-c4ccc5c(ccn5C)c4)c3c2)cc(OC)c1OC` [Example 24, 3-(1-methyl-1H-indol-5-yl)-5-(3,4,5-trimethoxyphenyl)-1H-pyrrolo[2,3-b]pyridine], the IC50 was under 100 nM.
Turning to `CN1CCN(Cc2cccc(-c3cnc4[nH]cc(-c5ccc(C(N)=O)cc5)c4c3)c2)CC1` [Example 156, 4-{5-[3-(4-methyl-piperazin-1-ylmethyl)-phenyl]-1H-pyrrolo[2,3-b]pyridin-3-yl}-benzamide], the IC50 is under 100 nM.
As for `CC(C)(C)OC(=O)N1CCN(C(=O)c2ccc(-c3cnc4[nH]cc(-c5ccc(C(N)=O)cc5)c4c3)cc2)CC1` [Example 148, 4-{4-[3-(4-carbamoyl-phenyl)-1H-pyrrolo[2,3-b]pyridin-5-yl]-benzoyl}-piperazine-1-carboxylic acid tert-butyl ester], the IC50 was under 100 nM.
Next, `COC(=O)N1CCN(Cc2ccc(-c3cnc4[nH]cc(-c5ccc6[nH]ccc6c5)c4c3)cc2)CC1` [Example 184]: under 100 nM; `CC(=O)N1CCN(Cc2ccc(-c3cnc4[nH]cc(-c5ccc(C(N)=O)cc5)c4c3)cc2)CC1` [Example 157, 4-{5-[4-(4-acetyl-piperazin-1-ylmethyl)-phenyl]-1H-pyrrolo[2,3-b]pyridin-3-yl}-benzamide]: under 100 nM; `O=c1[nH]c2ncc(-c3ccc(N4CCOCC4)cc3)nc2n1CC1CC1` [Example 86, 1-(cyclopropylmethyl)-6-(4-morpholinophenyl)-1H-imidazo[4,5-b]pyrazin-2(3H)-one]: over 1000 nM.
Turning to `COc1cc(-c2cnc3c(c2)C(=Cc2ccncc2)C(=O)N3)cc(OC)c1OC` (single isomer, unassigned) [Example 129, (E)- and (Z)-3-pyridin-4-ylmethylene-5-(3,4,5-trimethoxy-phenyl)-1,3-dihydro-pyrrolo[2,3-b]pyridin-2-one], the IC50 is over 1000 nM.
For the molecule `COc1cc(-c2cnc3c(c2)C(CC2CC2)(CC2CC2)C(=O)N3)cc(OC)c1OC` [Example 122, 3,3-bis(cyclopropylmethyl)-5-(3,4,5-trimethoxyphenyl)-1H-pyrrolo[2,3-b]pyridin-2(3H)-one], the IC50 was over 1000 nM.
In the case of `CC(=O)N1CCN(C(=O)c2ccc(-c3cnc4[nH]cc(-c5ccc6[nH]ccc6c5)c4c3)cc2)CC1` [Example 146, 1-(4-{4-[3-(1H-indol-5-yl)-1H-pyrrolo[2,3-b]pyridin-5-yl]-benzoyl}piperazin-1-yl)-ethanone], the IC50 is under 100 nM.
As to `CC(C)C(=O)N1CCN(Cc2ccc(-c3cnc4[nH]cc(-c5ccc6[nH]ccc6c5)c4c3)cc2)CC1` [Example 186], the IC50 is under 100 nM.
On to `COc1cc(-c2cnc3c(c2)C(Cc2ccncc2)C(=O)N3)cc(OC)c1OC` (stereo not drawn) [Example 136, 3-pyridin-4-ylmethyl-5-(3,4,5-trimethoxy-phenyl)-1,3-dihydro-pyrrolo[2,3-b]pyridin-2-one], for which the IC50 is over 1000 nM.
Next, `COc1cc(-c2cnc3c(c2)C(=Cc2ccc(C(N)=O)cc2)C(=O)N3)cc(OC)c1OC` [Example 131, 4-[2-oxo-5-(3,4,5-trimethoxy-phenyl)-1,2-dihydro-pyrrolo[2,3-b]pyridin-3-ylidenemethyl]-benzamide]: 100 to 1000 nM; `COc1cc(-c2cnc3[nH]c(=O)n(-c4ccc5[nH]ccc5c4)c3n2)cc(OC)c1OC` [Example 40, 1-(1H-indol-5-yl)-6-(3,4,5-trimethoxyphenyl)-1H-imidazo[4,5-b]pyrazin-2(3H)-one]: under 100 nM.
For `O=c1[nH]c2ncc(-c3ccc(O)cc3)nc2n1CC1CC1` [Example 81, 1-(cyclopropylmethyl)-6-(4-hydroxyphenyl)-1H-imidazo[4,5-b]pyrazin-2(3H)-one], the IC50 is over 1000 nM.
Consider `Cc1cc(C)cc(-c2cnc3[nH]c(=O)n(-c4ccc5c(ccn5C)c4)c3n2)c1` [Example 43, 6-(3,5-dimethylphenyl)-1-(1-methyl-1H-indol-5-yl)-1H-imidazo[4,5-b]pyrazin-2(3H)-one], for which the IC50 is over 1000 nM.
In the case of `COc1ccc(-c2cnc3[nH]c(=O)n(-c4ccc5[nH]ccc5c4)c3n2)cc1F` [Example 49, 6-(3-fluoro-4-methoxyphenyl)-1-(1H-indol-5-yl)-1H-imidazo[4,5-b]pyrazin-2(3H)-one] it was over 1000 nM.
Next, `COc1cc(-c2cnc3c(c2)C(Cc2ccccc2)C(=O)N3)cc(OC)c1OC` (stereo not drawn) [Example 137, 3-benzyl-5-(3,4,5-trimethoxy-phenyl)-1,3-dihydro-pyrrolo[2,3-b]pyridin-2-one]: over 1000 nM; `CC(C)(C)OC(=O)N1CCN(Cc2ccc(-c3cnc4[nH]cc(-c5ccc6[nH]ccc6c5)c4c3)cc2)CC1` [Example 144, 4-{4-[3-(1H-indol-5-yl)-1H-pyrrolo[2,3-b]pyridin-5-yl]-benzyl}-piperazine-1-carboxylic acid tert-butyl ester]: under 100 nM; `COc1cc(-c2cnc3c(c2)C(Cc2ccc(C(N)=O)cc2)C(=O)N3)cc(OC)c1OC` (stereo not drawn) [Example 138, 4-[2-oxo-5-(3,4,5-trimethoxy-phenyl)-2,3-dihydro-1H-pyrrolo[2,3-b]pyridin-3-ylmethyl]-benzamide]: over 1000 nM.

As a reminder, the IC50 is the midpoint of a concentration-inhibition curve.
